Test results: ChEMBL document CHEMBL1649270, “ST-246 inhibits in vivo poxvirus dissemination, virus shedding, and systemic disease manifestation” (2009)
Calls of active or inactive are those of the source. The calls are words filed in the database; no cut-off is given here.

Assays:
Vaccinia virus WR [1] = test: Antiviral activity against Vaccinia virus WR ATCC VR-1354 infected through intraperitoneal route in BALB/c mouse assessed as reduction of viral load in lung at 100 mg/kg, po qd measured after 3 days postinfection by RT-PCR analysis relative to control; format: functional, organism-based; set-up: dose 100 mg/kg
Vaccinia virus WR [2] = test: Antiviral activity against Vaccinia virus WR ATCC VR-1354 infected through percutaneous route in BALB/c mouse assessed as reduction of viral load in liver at 100 mg/kg, po qd measured after 3 days postinfection by RT-PCR analysis relative to control; format: functional
Vaccinia virus WR [3] = test: Antiviral activity against Vaccinia virus WR ATCC VR-1354 infected through intraperitoneal route in BALB/c mouse assessed as reduction of viral load in brain at 100 mg/kg, po qd measured after 5 days postinfection by RT-PCR analysis relative to control; format: functional, organism-based; set-up: dose 100 mg/kg
Vaccinia virus WR [4] = test: Antiviral activity against Vaccinia virus WR ATCC VR-1354 infected through intraperitoneal route in BALB/c mouse assessed as reduction of viral load in blood at 100 mg/kg, po qd measured after 3 days postinfection by RT-PCR analysis relative to control; format: functional, organism-based; set-up: dose 100 mg/kg
Vaccinia virus WR [5] = test: Antiviral activity against Vaccinia virus WR ATCC VR-1354 infected through percutaneous route in BALB/c mouse assessed as protection against virus-induced death at 100 mg/kg, po qd administered 3 days after postinfection measured on day 6; format: functional
Vaccinia virus WR [6] = test: Antiviral activity against Vaccinia virus WR ATCC VR-1354 infected through intraperitoneal route in BALB/c mouse assessed as reduction of viral load in lung at 100 mg/kg, po qd measured after 5 days postinfection by RT-PCR analysis relative to control; format: functional, organism-based; set-up: dose 100 mg/kg
Vaccinia virus WR [7] = test: Antiviral activity against Vaccinia virus WR ATCC VR-1354 infected through percutaneous route in BALB/c mouse assessed as inhibition of virus dissemination in liver at 100 mg/kg, po qd for 1 day by RT-PCR analysis; format: functional, organism-based; set-up: dose 100 mg/kg
Vaccinia virus WR [8] = test: Antiviral activity against Vaccinia virus WR ATCC VR-1354 infected through dermal scarification route in ACAM2000 vaccinated BALB/c mouse assessed as reduction of swab virus titers at 100 mg/kg, po qd measured after 14 days postinfection by RT-PCR analysis relative to control; format: functional
Vaccinia virus WR [9] = test: Antiviral activity against Vaccinia virus WR ATCC VR-1354 infected through intraperitoneal route in BALB/c mouse assessed as reduction of viral load in spleen at 100 mg/kg, po qd measured after 3 days postinfection by RT-PCR analysis relative to control; format: functional, organism-based; set-up: dose 100 mg/kg
Vaccinia virus WR [10] = test: Antiviral activity against Vaccinia virus WR ATCC VR-1354 infected through intravenous route in BALB/c mouse assessed as reduction of viral load in spleen at 100 mg/kg, po qd measured after 14 days postinfection by RT-PCR analysis relative to control; format: functional, organism-based; set-up: dose 100 mg/kg
Vaccinia virus WR [11] = test: Antiviral activity against Vaccinia virus WR ATCC VR-1354 infected through percutaneous route in BALB/c mouse assessed as protection against virus-induced conjunctivitis in mouse eyes at 100 mg/kg, po qd measured after 6 days postinfection; format: functional, organism-based; set-up: dose 100 mg/kg
Vaccinia virus WR [12] = test: Antiviral activity against Vaccinia virus WR ATCC VR-1354 infected through percutaneous route in BALB/c mouse assessed as reduction of viral load in liver at 100 mg/kg, po qd measured after 5 days postinfection by RT-PCR analysis relative to control; format: functional
Vaccinia virus WR [13] = test: Antiviral activity against Vaccinia virus WR ATCC VR-1354 infected through intravenous route in BALB/c mouse assessed as reduction of viral load in liver at 100 mg/kg, po qd measured after 14 days postinfection by RT-PCR analysis relative to control; format: functional, organism-based; set-up: dose 100 mg/kg
Vaccinia virus WR [14] = test: Antiviral activity against Vaccinia virus WR ATCC VR-1354 infected through percutaneous route in BALB/c mouse assessed as inhibition of virus dissemination in blood at 100 mg/kg, po qd for 3 to 14 days by RT-PCR analysis; format: functional, organism-based; set-up: dose 100 mg/kg
Vaccinia virus WR [15] = test: Antiviral activity against Vaccinia virus WR ATCC VR-1354 infected through intraperitoneal route in BALB/c mouse assessed as reduction of viral load in liver at 100 mg/kg, po qd measured after 3 days postinfection by RT-PCR analysis relative to control; format: functional, organism-based; set-up: dose 100 mg/kg
Vaccinia virus WR [16] = test: Antiviral activity against Vaccinia virus WR ATCC VR-1354 infected through intravenous route in BALB/c mouse assessed as protection against virus-induced satellite lesion formation on tails at 100 mg/kg, po qd measured after 6 days postinfection; format: functional, organism-based; set-up: dose 100 mg/kg
Vaccinia virus WR [17] = test: Antiviral activity against Vaccinia virus WR ATCC VR-1354 infected through percutaneous route in BALB/c mouse assessed as protection against virus-induced death at 100 mg/kg, po qd for 5 to 14 days; format: functional, organism-based; set-up: dose 100 mg/kg
Vaccinia virus WR [18] = test: Antiviral activity against Vaccinia virus WR ATCC VR-1354 infected through dermal scarification route in BALB/c mouse assessed as reduction of viral load in blood at 100 mg/kg, po qd measured after 14 days postinfection by RT-PCR analysis relative to control; format: functional, organism-based; set-up: dose 100 mg/kg
Vaccinia virus WR [19] = test: Antiviral activity against Vaccinia virus WR ATCC VR-1354 infected through percutaneous route in BALB/c mouse assessed as reduction of viral load in brain at 100 mg/kg, po qd measured after 13 days postinfection by RT-PCR analysis relative to control; format: functional, organism-based; set-up: dose 100 mg/kg
Vaccinia virus WR [20] = test: Antiviral activity against Vaccinia virus WR ATCC VR-1354 infected through percutaneous route in BALB/c mouse assessed as inhibition of virus dissemination in liver at 100 mg/kg, po qd for 3 to 14 days by RT-PCR analysis; format: functional, organism-based; set-up: dose 100 mg/kg
Vaccinia virus WR [21] = test: Antiviral activity against Vaccinia virus WR ATCC VR-1354 infected through percutaneous route in BALB/c mouse assessed as protection against virus-induced death at 100 mg/kg, po qd for 1 to 3 days; format: functional, organism-based; set-up: dose 100 mg/kg
Vaccinia virus WR [22] = test: Antiviral activity against Vaccinia virus WR ATCC VR-1354 infected through dermal scarification route in BALB/c mouse assessed as reduction of viral load in liver at 100 mg/kg, po qd measured after 14 days postinfection by RT-PCR analysis relative to control; format: functional, organism-based; set-up: dose 100 mg/kg
Vaccinia virus WR [23] = test: Antiviral activity against Vaccinia virus WR ATCC VR-1354 infected through intravenous route in BALB/c mouse assessed as reduction of viral load in brain at 100 mg/kg, po qd measured after 3 days postinfection by RT-PCR analysis relative to control; format: functional
Vaccinia virus WR [24] = test: Antiviral activity against Vaccinia virus WR ATCC VR-1354 infected through subcutaneous route in BALB/c mouse assessed as protection against virus-induced conjunctivitis in mouse eyes at 100 mg/kg, po qd measured after 6 days postinfection; format: functional, organism-based; set-up: dose 100 mg/kg
Vaccinia virus WR [25] = test: Antiviral activity against Vaccinia virus WR ATCC VR-1354 infected through dermal scarification route in BALB/c mouse assessed as reduction of viral load in brain at 100 mg/kg, po qd measured after 14 days postinfection by RT-PCR analysis relative to control; format: functional, organism-based; set-up: dose 100 mg/kg
Vaccinia virus WR [26] = test: Antiviral activity against Vaccinia virus WR ATCC VR-1354 infected through dermal scarification route in BALB/c mouse assessed as reduction of viral load in brain at 100 mg/kg, po qd measured after 5 days postinfection by RT-PCR analysis relative to control; format: functional

Structure (SMILES): O=C(NN1C(=O)[C@@H]2[C@@H]3C=C[C@@H]([C@H]4C[C@@H]34)[C@@H]2C1=O)c1ccc(C(F)(F)F)cc1 [TECOVIRIMAT]
- Activity (Vaccinia virus WR [1]): inactive
- fold change (FC) (Vaccinia virus WR [2]): 45
- Activity (Vaccinia virus WR [3]): Active
- Activity (Vaccinia virus WR [4]): inactive
- Activity (Vaccinia virus WR [5]): 100%
- Activity (Vaccinia virus WR [6]): Active
- Activity (Vaccinia virus WR [7]): inactive
- fold change (FC) (Vaccinia virus WR [8]): 25
- Activity (Vaccinia virus WR [9]): inactive
- Activity (Vaccinia virus WR [10]): Active
- Activity (Vaccinia virus WR [11]): Active
- fold change (FC) (Vaccinia virus WR [12]): 300
- Activity (Vaccinia virus WR [13]): Active
- Activity (Vaccinia virus WR [14]): Active
- Activity (Vaccinia virus WR [15]): inactive
- Activity (Vaccinia virus WR [16]): Active
- Activity (Vaccinia virus WR [17]): Active
- Activity (Vaccinia virus WR [18]): Active
- Activity (Vaccinia virus WR [19]): Active
- Activity (Vaccinia virus WR [20]): Active
- Activity (Vaccinia virus WR [21]): inactive
- Activity (Vaccinia virus WR [22]): Active
- fold change (FC) (Vaccinia virus WR [23]): 23
- Activity (Vaccinia virus WR [24]): Active
- Activity (Vaccinia virus WR [25]): Active
- fold change (FC) (Vaccinia virus WR [26]): 3
